Numbers after ± are expanded uncertainties.
Experiment: xn = mol fraction of the nth substance listed
Details: 101 kPa, Liquid, Voltage change across transformer (no electrode)

## CCCC[n+]1ccccc1.F[B-](F)(F)F [1-butylpyridinium tetrafluoroborate] + CO
293.15 K, x1 = 0.0432
  electrical conductivity: 2.87 ± 0.12 S/m
293.15 K, x1 = 0.0485
  electrical conductivity: 2.98 ± 0.12 S/m
293.15 K, x1 = 0.0698
  electrical conductivity: 3.21 ± 0.13 S/m
293.15 K, x1 = 0.0901
  electrical conductivity: 3.45 ± 0.14 S/m
293.15 K, x1 = 0.1091
  electrical conductivity: 3.71 ± 0.15 S/m
293.15 K, x1 = 0.1252
  electrical conductivity: 3.75 ± 0.15 S/m
293.15 K, x1 = 0.142
  electrical conductivity: 3.82 ± 0.15 S/m
293.15 K, x1 = 0.1629
  electrical conductivity: 3.79 ± 0.15 S/m
293.15 K, x1 = 0.1773
  electrical conductivity: 3.78 ± 0.15 S/m
293.15 K, x1 = 0.2273
  electrical conductivity: 3.47 ± 0.14 S/m
293.15 K, x1 = 0.2401
  electrical conductivity: 3.43 ± 0.14 S/m
293.15 K, x1 = 0.2966
  electrical conductivity: 3.14 ± 0.13 S/m
293.15 K, x1 = 0.3803
  electrical conductivity: 2.37 ± 0.09 S/m
293.15 K, x1 = 0.4277
  electrical conductivity: 2.07 ± 0.08 S/m
293.15 K, x1 = 0.4808
  electrical conductivity: 1.75 ± 0.07 S/m
293.15 K, x1 = 0.5618
  electrical conductivity: 1.2 ± 0.048 S/m
293.15 K, x1 = 0.6317
  electrical conductivity: 0.894 ± 0.036 S/m
293.15 K, x1 = 0.698
  electrical conductivity: 0.74 ± 0.03 S/m
293.15 K, x1 = 0.8355
  electrical conductivity: 0.406 ± 0.016 S/m
293.15 K, x1 = 0.879
  electrical conductivity: 0.321 ± 0.013 S/m
293.15 K, x1 = 0.9279
  electrical conductivity: 0.27 ± 0.011 S/m
293.15 K, x1 = 1
  electrical conductivity: 0.181 ± 0.0072 S/m
303.15 K, x1 = 0.0432
  electrical conductivity: 3.37 ± 0.14 S/m
303.15 K, x1 = 0.0485
  electrical conductivity: 3.51 ± 0.14 S/m
303.15 K, x1 = 0.0698
  electrical conductivity: 3.82 ± 0.15 S/m
303.15 K, x1 = 0.0901
  electrical conductivity: 4.17 ± 0.17 S/m
303.15 K, x1 = 0.1091
  electrical conductivity: 4.39 ± 0.18 S/m
303.15 K, x1 = 0.1252
  electrical conductivity: 4.54 ± 0.18 S/m
303.15 K, x1 = 0.142
  electrical conductivity: 4.61 ± 0.18 S/m
303.15 K, x1 = 0.1629
  electrical conductivity: 4.59 ± 0.18 S/m
303.15 K, x1 = 0.1773
  electrical conductivity: 4.57 ± 0.18 S/m
303.15 K, x1 = 0.2273
  electrical conductivity: 4.3 ± 0.17 S/m
303.15 K, x1 = 0.2401
  electrical conductivity: 4.26 ± 0.17 S/m
303.15 K, x1 = 0.2966
  electrical conductivity: 3.99 ± 0.16 S/m
303.15 K, x1 = 0.3803
  electrical conductivity: 3.05 ± 0.12 S/m
303.15 K, x1 = 0.4277
  electrical conductivity: 2.71 ± 0.11 S/m
303.15 K, x1 = 0.4808
  electrical conductivity: 2.29 ± 0.09 S/m
303.15 K, x1 = 0.5618
  electrical conductivity: 1.72 ± 0.069 S/m
303.15 K, x1 = 0.6317
  electrical conductivity: 1.35 ± 0.054 S/m
303.15 K, x1 = 0.698
  electrical conductivity: 1.07 ± 0.043 S/m
303.15 K, x1 = 0.8355
  electrical conductivity: 0.647 ± 0.026 S/m
303.15 K, x1 = 0.879
  electrical conductivity: 0.514 ± 0.021 S/m
303.15 K, x1 = 0.9279
  electrical conductivity: 0.446 ± 0.018 S/m
303.15 K, x1 = 1
  electrical conductivity: 0.321 ± 0.013 S/m
313.15 K, x1 = 0.0432
  electrical conductivity: 3.91 ± 0.16 S/m
313.15 K, x1 = 0.0485
  electrical conductivity: 3.95 ± 0.16 S/m
313.15 K, x1 = 0.0698
  electrical conductivity: 4.45 ± 0.18 S/m
313.15 K, x1 = 0.0901
  electrical conductivity: 4.89 ± 0.2 S/m
313.15 K, x1 = 0.1091
  electrical conductivity: 5.14 ± 0.21 S/m
313.15 K, x1 = 0.1252
  electrical conductivity: 5.35 ± 0.21 S/m
313.15 K, x1 = 0.142
  electrical conductivity: 5.45 ± 0.22 S/m
313.15 K, x1 = 0.1629
  electrical conductivity: 5.49 ± 0.22 S/m
313.15 K, x1 = 0.1773
  electrical conductivity: 5.38 ± 0.22 S/m
313.15 K, x1 = 0.2273
  electrical conductivity: 5.16 ± 0.21 S/m
313.15 K, x1 = 0.2401
  electrical conductivity: 5.13 ± 0.21 S/m
313.15 K, x1 = 0.2966
  electrical conductivity: 4.81 ± 0.19 S/m
313.15 K, x1 = 0.3803
  electrical conductivity: 3.72 ± 0.15 S/m
313.15 K, x1 = 0.4277
  electrical conductivity: 3.39 ± 0.14 S/m
313.15 K, x1 = 0.4808
  electrical conductivity: 2.89 ± 0.12 S/m
313.15 K, x1 = 0.5618
  electrical conductivity: 2.22 ± 0.09 S/m
313.15 K, x1 = 0.6317
  electrical conductivity: 1.81 ± 0.072 S/m
313.15 K, x1 = 0.698
  electrical conductivity: 1.45 ± 0.058 S/m
313.15 K, x1 = 0.8355
  electrical conductivity: 0.966 ± 0.039 S/m
313.15 K, x1 = 0.879
  electrical conductivity: 0.776 ± 0.031 S/m
313.15 K, x1 = 0.9279
  electrical conductivity: 0.684 ± 0.027 S/m
313.15 K, x1 = 1
  electrical conductivity: 0.519 ± 0.021 S/m
323.15 K, x1 = 0.0432
  electrical conductivity: 4.28 ± 0.17 S/m
323.15 K, x1 = 0.0485
  electrical conductivity: 4.62 ± 0.19 S/m
323.15 K, x1 = 0.0698
  electrical conductivity: 5.11 ± 0.2 S/m
323.15 K, x1 = 0.0901
  electrical conductivity: 5.46 ± 0.22 S/m
323.15 K, x1 = 0.1091
  electrical conductivity: 5.81 ± 0.23 S/m
323.15 K, x1 = 0.1252
  electrical conductivity: 6.06 ± 0.24 S/m
323.15 K, x1 = 0.142
  electrical conductivity: 6.12 ± 0.24 S/m
323.15 K, x1 = 0.1629
  electrical conductivity: 6.19 ± 0.25 S/m
323.15 K, x1 = 0.1773
  electrical conductivity: 6.12 ± 0.24 S/m
323.15 K, x1 = 0.2273
  electrical conductivity: 6.01 ± 0.24 S/m
323.15 K, x1 = 0.2401
  electrical conductivity: 5.94 ± 0.24 S/m
323.15 K, x1 = 0.2966
  electrical conductivity: 5.59 ± 0.22 S/m
323.15 K, x1 = 0.3803
  electrical conductivity: 4.51 ± 0.18 S/m
323.15 K, x1 = 0.4277
  electrical conductivity: 4.08 ± 0.16 S/m
323.15 K, x1 = 0.4808
  electrical conductivity: 3.49 ± 0.14 S/m
323.15 K, x1 = 0.5618
  electrical conductivity: 2.77 ± 0.11 S/m
323.15 K, x1 = 0.6317
  electrical conductivity: 2.35 ± 0.09 S/m
323.15 K, x1 = 0.698
  electrical conductivity: 1.89 ± 0.076 S/m
323.15 K, x1 = 0.8355
  electrical conductivity: 1.39 ± 0.055 S/m
323.15 K, x1 = 0.879
  electrical conductivity: 1.12 ± 0.045 S/m
323.15 K, x1 = 0.9279
  electrical conductivity: 0.976 ± 0.039 S/m
323.15 K, x1 = 1
  electrical conductivity: 0.785 ± 0.031 S/m
